Measured values: ChEMBL document CHEMBL1201862, “PubChem BioAssay data set” (2004)
Activity calls are given as the source filed them.

Legend:
[1] = target: DNA dC->dU-editing enzyme APOBEC-3A (Homo sapiens, UniProt P31941); test: APOBEC3A DNA deaminase inhibitors, dose response, biochemical (AID 504722); type: functional
[2] = target: DNA dC->dU-editing enzyme APOBEC-3G (Homo sapiens, UniProt Q9HC16); test: Dose Response confirmation of small molecule APOBEC3G DNA Deaminase Inhibitors via a fluorescence-based single-stranded DNA deaminase assay. [Related pubchem assays (depositor defined):AID493012, AID493028]; type: functional
[3] = THP-1 cell cytotoxicity, dose response, cytotoxicity control for non-replicating M. tuberculosis project (AID 489025); type: functional
Nonstructural protein 1 = Nonstructural protein 1 (Influenza A virus, UniProt Q194T2); type: functional, Influenza A virus (A/California/07/2009(H1N1))
cells = type: functional
Hexokinase HKDC1 = target: T1, Hexokinase HKDC1 (Homo sapiens, UniProt Q2TB90); test: HKDC1 hexokinase inhibitors, dose response, biochemical, W721R variant (AID 504729); type: functional
T1 sequence (Q2TB90 whole entry): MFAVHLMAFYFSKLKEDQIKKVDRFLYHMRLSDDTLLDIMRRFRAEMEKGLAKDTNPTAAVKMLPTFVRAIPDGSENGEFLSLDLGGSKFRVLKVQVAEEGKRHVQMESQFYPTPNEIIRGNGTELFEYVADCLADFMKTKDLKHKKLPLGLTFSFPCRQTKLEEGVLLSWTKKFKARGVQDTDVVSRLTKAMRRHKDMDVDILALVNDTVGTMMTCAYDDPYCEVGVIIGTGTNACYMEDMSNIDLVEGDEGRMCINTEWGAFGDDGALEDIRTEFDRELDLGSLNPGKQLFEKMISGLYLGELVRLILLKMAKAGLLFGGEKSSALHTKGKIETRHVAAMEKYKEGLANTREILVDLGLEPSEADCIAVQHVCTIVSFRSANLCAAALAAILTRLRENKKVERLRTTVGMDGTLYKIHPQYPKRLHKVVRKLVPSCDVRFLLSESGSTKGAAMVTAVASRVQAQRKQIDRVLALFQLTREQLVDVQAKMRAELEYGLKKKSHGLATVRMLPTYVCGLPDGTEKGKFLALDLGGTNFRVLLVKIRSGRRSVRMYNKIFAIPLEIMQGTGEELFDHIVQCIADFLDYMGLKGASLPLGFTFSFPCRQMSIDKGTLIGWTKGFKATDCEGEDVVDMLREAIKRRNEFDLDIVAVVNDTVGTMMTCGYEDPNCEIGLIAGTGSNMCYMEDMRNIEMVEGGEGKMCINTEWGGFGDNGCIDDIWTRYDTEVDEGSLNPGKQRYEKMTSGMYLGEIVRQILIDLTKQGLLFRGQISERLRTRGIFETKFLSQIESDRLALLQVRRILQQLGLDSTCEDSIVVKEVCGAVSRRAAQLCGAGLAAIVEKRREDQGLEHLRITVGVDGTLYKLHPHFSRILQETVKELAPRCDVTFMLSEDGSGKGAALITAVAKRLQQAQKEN

Bcl-2-like protein 10 = target: T2, Bcl-2-like protein 10 (Homo sapiens, UniProt Q9HD36); test: displacers of TR3 peptide from Bcl-B, primary screen, selectivity assay for Bfl-1 inhibitor project, biochemical, fluorescence polarization, FITC-TR3 peptide (AID 748);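 further: fluorescence polarization from a fluorescein-labelled TR3 peptide binding purified Bcl-B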
T2 sequence (Q9HD36 whole entry): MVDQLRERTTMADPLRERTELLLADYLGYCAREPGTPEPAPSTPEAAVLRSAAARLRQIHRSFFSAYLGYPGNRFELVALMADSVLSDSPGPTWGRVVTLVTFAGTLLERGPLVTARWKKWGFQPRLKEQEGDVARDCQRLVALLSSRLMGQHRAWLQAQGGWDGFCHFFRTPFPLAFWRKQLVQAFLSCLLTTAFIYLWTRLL

[4] = target: Alkaline phosphatase, placental type (Homo sapiens, UniProt P05187); test: PLAP enzyme inhibitors, confirmation, biochemical, luminescence (AID 1512); type: functional
[5] = target: T3, Alkaline phosphatase, tissue-nonspecific isozyme (Homo sapiens, UniProt P05186); test: human TNAP enzyme inhibitors, SAR follow-up, biochemical, luminescent, dose response (AID 1056)
T3 sequence (P05186 whole entry): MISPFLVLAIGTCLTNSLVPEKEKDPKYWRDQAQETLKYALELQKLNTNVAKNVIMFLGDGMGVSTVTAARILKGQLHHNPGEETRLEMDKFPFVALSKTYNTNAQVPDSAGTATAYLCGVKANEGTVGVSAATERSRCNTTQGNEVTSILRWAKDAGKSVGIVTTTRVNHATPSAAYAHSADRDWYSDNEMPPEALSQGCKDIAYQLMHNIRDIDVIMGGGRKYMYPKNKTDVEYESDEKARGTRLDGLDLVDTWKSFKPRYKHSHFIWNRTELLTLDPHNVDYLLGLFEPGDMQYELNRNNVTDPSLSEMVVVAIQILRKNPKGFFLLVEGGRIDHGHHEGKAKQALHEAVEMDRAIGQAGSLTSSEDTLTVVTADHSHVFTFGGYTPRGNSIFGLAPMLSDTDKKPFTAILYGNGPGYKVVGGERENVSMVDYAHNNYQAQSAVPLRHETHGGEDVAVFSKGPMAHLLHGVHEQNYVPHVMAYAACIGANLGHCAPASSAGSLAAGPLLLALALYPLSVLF

DNA dC->dU-editing enzyme APOBEC-3G, sequence (Q9HC16 whole entry): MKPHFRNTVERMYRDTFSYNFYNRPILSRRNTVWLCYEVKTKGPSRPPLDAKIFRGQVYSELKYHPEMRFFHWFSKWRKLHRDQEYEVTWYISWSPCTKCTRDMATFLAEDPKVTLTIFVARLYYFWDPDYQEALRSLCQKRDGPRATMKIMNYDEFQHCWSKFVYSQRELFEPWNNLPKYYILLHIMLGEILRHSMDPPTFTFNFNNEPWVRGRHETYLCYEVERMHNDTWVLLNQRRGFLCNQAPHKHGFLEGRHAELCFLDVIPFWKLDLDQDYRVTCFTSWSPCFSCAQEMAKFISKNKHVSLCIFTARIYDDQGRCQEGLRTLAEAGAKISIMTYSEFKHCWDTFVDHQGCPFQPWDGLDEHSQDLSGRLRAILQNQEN
DNA dC->dU-editing enzyme APOBEC-3A, sequence (P31941 whole entry): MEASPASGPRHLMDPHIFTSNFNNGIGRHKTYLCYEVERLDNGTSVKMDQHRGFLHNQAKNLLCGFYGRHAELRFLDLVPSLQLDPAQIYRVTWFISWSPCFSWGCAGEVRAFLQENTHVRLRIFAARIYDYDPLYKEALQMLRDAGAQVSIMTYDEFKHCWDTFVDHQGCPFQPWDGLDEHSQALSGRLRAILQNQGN
Nonstructural protein 1, sequence (Q194T2 whole entry): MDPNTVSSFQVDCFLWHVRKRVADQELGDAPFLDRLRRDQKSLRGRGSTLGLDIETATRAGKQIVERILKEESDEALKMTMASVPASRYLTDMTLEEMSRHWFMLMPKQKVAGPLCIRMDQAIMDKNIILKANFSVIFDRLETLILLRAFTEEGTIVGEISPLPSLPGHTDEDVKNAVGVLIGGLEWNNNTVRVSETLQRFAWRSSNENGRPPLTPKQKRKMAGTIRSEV
Alkaline phosphatase, placental type, sequence (P05187 whole entry): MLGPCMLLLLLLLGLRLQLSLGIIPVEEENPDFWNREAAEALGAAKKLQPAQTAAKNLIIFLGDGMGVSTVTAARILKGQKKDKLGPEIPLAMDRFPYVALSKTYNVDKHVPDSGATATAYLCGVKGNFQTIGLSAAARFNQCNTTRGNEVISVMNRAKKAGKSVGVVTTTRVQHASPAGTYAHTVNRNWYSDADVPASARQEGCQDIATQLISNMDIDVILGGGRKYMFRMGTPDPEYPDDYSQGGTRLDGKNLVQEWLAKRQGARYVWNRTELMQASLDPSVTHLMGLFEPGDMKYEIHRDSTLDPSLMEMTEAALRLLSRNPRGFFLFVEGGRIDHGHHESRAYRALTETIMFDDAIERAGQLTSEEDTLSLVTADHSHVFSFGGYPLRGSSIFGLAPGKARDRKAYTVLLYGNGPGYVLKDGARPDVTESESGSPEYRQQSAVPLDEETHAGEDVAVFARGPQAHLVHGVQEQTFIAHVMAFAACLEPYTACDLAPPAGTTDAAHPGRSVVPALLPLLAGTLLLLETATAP

**Q.** Which results are given for `O=[N+]([O-])c1cccc(/C=N/n2c(S)nnc2COc2ccccc2)c1`?
**A.** IC50 [1]: > 100 µM (inactive); IC50 [2]: 5.51 µM (active)

**Q.** For `Cc1ccc(Nc2ccccc2N)cc1`, which CC50 [3] is on record?
**A.** > 40 µM (active)

**Q.** And the IC50 (Nonstructural protein 1)?
**A.** 21.9 µM (active)

**Q.** And the IC50 (cells)?
**A.** 0.74 µM (active)

**Q.** For `COC(=O)c1ccc(NCc2cc(O)ccc2O)cc1`, which IC50 (Hexokinase HKDC1) is on record?
**A.** 12.2 µM (active)

**Q.** With `Cc1ccc2cc(CCNC(=O)c3ccc(S(=O)(=O)N4CCCCC4)cc3)c(O)nc2c1` as the compound, how does the IC50 (Hexokinase HKDC1) read?
**A.** 8.17 µM (active)

**Q.** For `CSc1nc2n(n1)C(c1ccccn1)C1=C(O)CC(C)(C)CC1=N2` (stereo unspecified), which IC50 (Bcl-2-like protein 10) is on record?
**A.** > 100 µM (inactive)

**Q.** With `CC(=O)C1=C(C)OC(N)=C(C#N)C1c1ccco1` (stereo unspecified) as the compound, how does the IC50 (Bcl-2-like protein 10) read?
**A.** > 6.25 µM (inactive)

**Q.** For `CCCCN1C(=O)/C(=N\Nc2ccccc2C)c2ccccc21`, which IC50 [4] is on record?
**A.** 74.4 µM (active)

**Q.** And the IC50 [5]?
**A.** 78 µM (active)
